# Data taken from patent US6784153B1, “Methods of homing molecules to lung using membrane dipeptidase” (The Burnham Institute, priority 1998, dated 2004).
# Columns and labels:
# gut = test: in vivo panning of X7 library, gut; design: species or system mice; details: for % OF MOTIF AMONG ALL CLONES: GUT, of 40 clones sequenced; for gut/brain enrichment ratio: GUT section, gut as compared to brain
# Protocol: (§1) Following various in vivo panning screens, hundreds of thousands to millions of phage expressing homing peptides were recovered from the respective organ or tissue. Generally, the phage collected from a round of in vivo panning were plated on agar, about 250 to 300 clones were selected, grown in 5 ml cultures, then pooled and readministered for a subsequent round of in vivo panning (“regular method”). However, in some experiments, 1000 clones were selected, grown in 2 ml cultures, then pooled and administered for a subsequent round of screening; or the entire agar plate was scraped and all of the phage were cultured together and administered for a subsequent round of screening. The peptide inserts of various isolated phage were determined such that, of the millions of phage that homed, only a small number of sequences were identified.
# The invention also provides gut homing peptides such as YSGKWGK (SEQ ID NO: 9) and YSGKWGW (SEQ ID NO: 156), which were identified by injection of an X7 (SEQ ID NO: 29) library into mice (Tables 1 and 4) and differ only in the last amino acid position. The peptides were isolated by the regular method. The gut homing peptide YSGKWGK (SEQ ID NO: 9) was present in 22% of 40 clones sequenced and was enriched 30-fold in gut as compared to brain (Table 1). In addition, gut homing peptides such as QVRRVPE (SEQ ID NO: 155) and VRRGSPQ (SEQ ID NO: 164), which share a VRR motif, were identified, as were the peptides VRRGSPQ (SEQ ID NO: 164), GGRGSWE (SEQ ID NO: 167) and FRVRGSP (SEQ ID NO: 169), which share an RGS motif.
# (§2) Organ samples were washed 3 times with ice cold DMEM-PI containing 1% bovine serum albumin (BSA), then directly incubated with 1 ml K91-kan bacteria for 1 hr. Ten ml NZY medium containing 0.2 μg/ml tetracycline (NZY/tet) was added to the bacterial culture, the mixture was incubated in a 37° C. shaker for 1 hr, then 200 μl aliquots were plated in agar plates containing 40 μg/ml tetracycline (tet/agar).
# (§3) Approximately 250 to 300 individual bacterial colonies containing phage recovered from the various organs or tissues were grown for 16 hr in 5 ml NZY/tet. In some experiments, approximately 1000 individual bacteria containing phage were picked and the phage were amplified in 2 ml of NZY/tet or the entire plate containing phage was scraped, pooled and grown in bulk and processed for injection. Where phage were cultured separately, the cultures were pooled and the phage were injected into mice or rats as described above for a second round of in vivo panning. In some experiments, a third or fourth round of panning was performed. Phage DNA was purified from individual bacterial colonies obtained and the DNA sequences encoding the peptides expressed by selected phage were determined (see Koivunen et al., supra, 1994b).
# ovary = test: in vivo panning of X7 library, ovary; design: species or system mice; details: for ovary/brain enrichment ratio: OVARY section, ovary as compared to brain; for % OF MOTIF AMONG ALL CLONES: OVARY, of 40 clones sequenced; for enrichment in ovary as compared to brain: mouse, in vivo
# Protocol: as §1
# Also provided are ovary homing peptides such as RVGLVAR (SEQ ID NO: 11) and EVRSRLS (SEQ ID NO: 10), which were identified by injection of an X7 (SEQ ID NO: 29) library into mice (Table 8). The peptides were isolated by the regular method.
# as §2, §3
# lung = test: in vivo homing of phage displaying peptides to lung; design: species or system mice; details: for % OF MOTIF AMONG ALL CLONES: LUNG; for LUNG/BRAIN RATIO: LUNG section; for enriched in lung over unselected phage: individually amplified phage, FIG. 2; for enrichment in lung as compared to unselected phage: mouse, in vivo
# Protocol: For lung and pancreas, a mixture of phage libraries containing 10^10 TU was diluted in 200 μl DMEM and injected into the tail vein of anesthetized BALB/c mice (2 month old; Harlan Sprague Dawley; San Diego Calif.); AVERTIN (0.017 ml/g) was used as anesthetic (Pasqualini and Ruoslahti, supra, 1996). After 1-4 minutes, mice were snap frozen in liquid nitrogen or, after about 5 minutes of phage circulation, the mice were perfused through the heart with 5-10 ml of DMEM (SIGMA; St. Louis Mo.). To recover the phage, the organs from the perfused mice or partially thawed organs from snap frozen mice were collected and weighed, then were homogenized in 1 ml DMEM-PI (DMEM containing protease inhibitors (PI); phenylmethyl sulfonyl fluoride (PMSF; 1 mM), aprotinin (20 μg/ml), leupeptin (1 μg/ml)).
# as §2, §3
# After two or three rounds of in vivo panning of mice injected with a cyclic CX3CX3CX3C (SEQ ID NO: 25) or a cyclic CX6C (SEQ ID NO: 26) phage display library, four peptides that homed to lung were identified.
# To determine the specificity of lung homing of the individual peptides identified, phage displaying the peptides were amplified individually, diluted to the same input titer and administered to mice. Following administration, control kidney and brain organ was removed and the number of TU of phage in lung, kidney and brain was determined. The results shown in FIG. 2 reveal that 10× and 35× more phage having the peptide sequence CGFECVRQCPERC (SEQ ID NO: 1; GFE-1) bound to lung than to kidney and brain, respectively. […] The lung homing peptides CGFECVRQCPERC (SEQ ID NO: 1; GFE-1), CGFELETC (SEQ ID NO: 2; GFE-2), CTLRDRNC (SEQ ID NO: 15) and CIGEVEVC (SEQ ID NO: 16) are enriched in lung at 35×, 9×, 6× and 5×, respectively, over unselected phage (see FIG. 2).
# skin = test: in vivo homing of phage displaying peptides to skin; design: species or system mice
# Protocol: For in vivo panning of skin, two month old BALB/c nude mice were used to avoid contamination by hair. The mice were injected intravenously with phage as described above and, after perfusion through the heart, the skin was removed in large sections and placed on an ice cold plate with the hypodermis facing up. The skin was scraped with a scalpel to remove mostly hypodermis, which was then processed for phage recovery as described below.
# as §3
# in After two or three rounds of in vivo panning of mice injected with a cyclic CX3CX3CX3C (SEQ ID NO: 25) phage display library, the peptide sequence CVALCREACGEGC (SEQ ID NO: 3), which appeared repeatedly in skin, was identified (Table 1). To determine the specificity of skin homing of the sequence CVALCREACGEGC (SEQ ID NO: 3), phage displaying the peptide was amplified individually, diluted to the same input titer and administered to mice. Following administration, control kidney and brain organ were removed and the number of TU of phage in skin, kidney and brain was determined.
# Peptides that were identified more than one time during screening are indicated by an asterisk. For example, 14% of recovered CX3CX3CX3C (SEQ ID NO: 25) phage that homed to head skin had the sequence CVDVCCDGCPVCC (SEQ ID NO: 437). Phage having the sequence RVPLSGDVEH (SEQ ID NO: 438), LRVMSFTSGQ (SEQ ID NO: 439), or RFSVGSLFGS (SEQ ID NO: 440) each constituted 14% of recovered CX10C (SEQ ID NO: 30) phage that homed to head skin.
# retina = test: in vivo homing of phage displaying peptides to retina, coinjected with control phage fdAMPLAY88; design: species or system rats; details: for enrichment in retina: injected individually with control fdAMPLAY88 phage; for enrichment in retina compared to control fdAMPLAY88 phage: rat, in vivo
# Protocol: For in vivo panning of retina, two month old female Simonson Albino rats were used to provide larger tissue samples than mice. The rats were anesthetized with phenobarbital (50 mg/kg body weight), and, while under deep anesthesia, the abdominal cavity of the rats was opened and 10^10 TU of a phage library was injected into the left ventricle of the heart through the diaphragm. After 2-5 minutes of phage circulation, the eyes were removed, then washed once in 70% EtOH and once in PBS. The anterior chamber, with cornea and lens, was removed and the retina was peeled from the remaining posterior chamber. The tissue was weighed, homogenized with a syringe bulb in 1 ml of ice cold DMEM containing protease inhibitors (1 mM PMSF, 20 μg/ml aprotinin and 1 μg/ml of leupeptin; all from SIGMA; St. Louis Mo.). The tissue was washed 3 times with 1 ml of DMEM and the phage were rescued as described below.
# as §3
# Rats injected with a cyclic CX7C (SEQ ID NO: 24) phage display library were subjected to in vivo panning and, after three rounds, the peptide sequences CSCFRDVCC (SEQ ID NO: 5) and CRDVVSVIC (SEQ ID NO: 6) were identified in retina. Because of small tissue sample size, the phage isolated could not be accurately quantitated. Thus, the selectivity of phage displaying the peptides was determined by individually amplifying the phage displaying the sequence and administering the phage to rats with a control phage fdAMPLAY88. This fd-ampicillin phage is similar to fd-tetracycline (fuse 5-based) in that it has the same infectivity.
# Rats were injected with an equal amount of the CSCFRDVCC (SEQ ID NO: 5) or CRDVVSVIC (SEQ ID NO: 6) and the fdAMPLAY88 phage. Following administration, homing to retina was evaluated by comparing the number of TU of the selected phage on tetracycline plates and fdAMPLAY88 on ampicillin plates recovered from retina.
# prostate = test: in vivo panning of X7 library, prostate; design: species or system mice; details: for % OF MOTIF AMONG ALL CLONES: PROSTATE; for prostate/brain homing ratio: PROSTATE section, prostate as compared to brain; for enrichment in homing to prostate as compared to brain: mouse, in vivo
# Protocol: as §1
# The invention also provides prostate homing peptides such as SMSIARL (SEQ ID NO: 21) and VSFLEYR (SEQ ID NO: 22), which were identified by injection of an X7 (SEQ ID NO: 29) library into mice (Table 7). The peptides were isolated by the regular method.
# as §2, §3
substance,measurement,setting,value
GISALVLS,% OF MOTIF AMONG ALL CLONES,gut,11%
RVGLVAR [peptide from phage recovered from ovary],ovary/brain enrichment ratio,ovary,5
same,% OF MOTIF AMONG ALL CLONES,ovary,22%
same,enrichment in ovary as compared to brain,ovary,5 fold
CRPWHNQAHTEC [peptide from phage recovered from lung],% OF MOTIF AMONG ALL CLONES,lung,14%
same,LUNG/BRAIN RATIO,lung,5
LRVMSFTSGQ [peptide from phage recovered from skin],% of recovered CX10C phage that homed to head skin,skin; head skin,14%
CRDVVSVIC [retina homing peptide],enrichment in retina,retina,2 fold
same,enrichment in retina compared to control fdAMPLAY88 phage,retina,2 ×
CWRGDRKIC [peptide from phage recovered from lung],% OF MOTIF AMONG ALL CLONES,lung,8%
same,LUNG/BRAIN RATIO,lung,2
CGKRYRNC,% OF MOTIF AMONG ALL CLONES,lung,5%
same,LUNG/BRAIN RATIO,lung,5
SMSIARL [peptide from phage recovered from prostate],% OF MOTIF AMONG ALL CLONES,prostate,6%
same,prostate/brain homing ratio,prostate,34
same,enrichment in homing to prostate as compared to brain,prostate,34 fold
RVPLSGDVEH [peptide from phage recovered from skin],% of recovered CX10C phage that homed to head skin,skin; head skin,14%
CKWSRLHSC [peptide from phage recovered from lung],% OF MOTIF AMONG ALL CLONES,lung,11%
same,LUNG/BRAIN RATIO,lung,3
CSCFRDVCC [retina homing peptide],enrichment in retina,retina,3 fold
same,enrichment in retina compared to control fdAMPLAY88 phage,retina,3 ×
CVDVCCDGCPVCC [peptide from phage recovered from skin],% of recovered CX3CX3CX3C phage that homed to head skin,skin; head skin,14%
YSGKWGK [gut homing peptide],gut/brain enrichment ratio,gut,30
same,% OF MOTIF AMONG ALL CLONES,gut,22%
same,enriched in gut as compared to brain,"gut; mouse, in vivo",30 fold
MSPQLAT [peptide from phage recovered from gut],% OF MOTIF AMONG ALL CLONES,gut,11%
CLAKENVVC [peptide from phage recovered from lung],% OF MOTIF AMONG ALL CLONES,lung,13%
same,LUNG/BRAIN RATIO,lung,2
CIGEVEVC [peptide from phage recovered from lung],% OF MOTIF AMONG ALL CLONES,lung,5%
same,LUNG/BRAIN RATIO,lung,6
same,enriched in lung over unselected phage,lung,5 ×
same,enrichment in lung as compared to unselected phage,lung,6 fold
CLRPYLNC [peptide from phage recovered from lung],% OF MOTIF AMONG ALL CLONES,lung,10%
same,LUNG/BRAIN RATIO,lung,6
VSFLEYR [peptide from phage recovered from prostate],% OF MOTIF AMONG ALL CLONES,prostate,6%
same,prostate/brain homing ratio,prostate,17
same,enrichment in homing to prostate as compared to brain,prostate,17 fold
CTLRDRNC [lung homing peptide],% OF MOTIF AMONG ALL CLONES,lung,10%
same,LUNG/BRAIN RATIO,lung,8
same,enriched in lung over unselected phage,lung,6 ×
same,enrichment in lung as compared to unselected phage,lung,8 fold
CERVVGSSC [peptide from phage recovered from lung],% OF MOTIF AMONG ALL CLONES,lung,9%
same,LUNG/BRAIN RATIO,lung,4
EVRSRLS [peptide from phage recovered from ovary],ovary/brain enrichment ratio,ovary,3
same,% OF MOTIF AMONG ALL CLONES,ovary,22%
same,enrichment in ovary as compared to brain,ovary,3 fold
CGATCEMQCPSGC [peptide from phage recovered from skin],"% of recovered CX3CX3CX3C phage, homing to tail skin",skin; tail skin,12%
CSSGCSKNCLEMC [peptide from phage recovered from skin],skin/brain phage ratio,skin; SKIN section,2
RFSVGSLFGS [peptide from phage recovered from skin],% of recovered CX10C phage that homed to head skin,skin; head skin,14%
CRLRSYGTLSLC [peptide from phage recovered from lung],% OF MOTIF AMONG ALL CLONES,lung,5%
same,LUNG/BRAIN RATIO,lung,0.4
RGRWLAL [peptide from phage recovered from prostate],% OF MOTIF AMONG ALL CLONES,prostate,6%
CTVNEAYKTRMC [peptide from phage recovered from lung],% OF MOTIF AMONG ALL CLONES,lung,22%
same,LUNG/BRAIN RATIO,lung,3
SRRQPLS [peptide from phage recovered from gut],gut/brain enrichment ratio,gut,2
same,% OF MOTIF AMONG ALL CLONES,gut,11%
